According to the supplement of paper PMC13380429:

Columns and labels:
Conditions in all cases: 72 h
Calu-3 [1] = experiment: relative viability EC50 (midpoint between 100% and the lowest measured viability); higher = less toxic
Vero E6 [2] = experiment: as above
U2OS [3] = experiment: as above
Caco-2 [4] = experiment: as above
HepG2 [5] = experiment: as above
Calu-3 [6] = experiment: drug sensitivity score (DSS) for viability; higher = more toxic; extreme values may be limits of the assay
Vero E6 [7] = experiment: as above
U2OS [8] = experiment: as above
Caco-2 [9] = experiment: as above
HepG2 [10] = experiment: as above
Calu-3 [11] = experiment: cell viability relative to DMSO; higher = less toxic
Vero E6 [12] = experiment: as above
U2OS [13] = experiment: as above
Caco-2 [14] = experiment: as above
HepG2 [15] = experiment: as above

SMILES | relative viability EC50 (Calu-3 [1]) | relative viability EC50 (Vero E6 [2]) | relative viability EC50 (U2OS [3]) | relative viability EC50 (Caco-2 [4]) | relative viability EC50 (HepG2 [5]) | drug sensitivity score (Calu-3 [6]) | drug sensitivity score (Vero E6 [7]) | drug sensitivity score (U2OS [8]) | drug sensitivity score (Caco-2 [9]) | drug sensitivity score (HepG2 [10]) | cell viability (Calu-3 [11]; 1 nM) | cell viability (Calu-3 [11]; 10 nM) | cell viability (Calu-3 [11]; 100 nM) | cell viability (Calu-3 [11]; 1000 nM) | cell viability (Calu-3 [11]; 10000 nM) | cell viability (Vero E6 [12]; 1 nM) | cell viability (Vero E6 [12]; 10 nM) | cell viability (Vero E6 [12]; 100 nM) | cell viability (Vero E6 [12]; 1000 nM) | cell viability (Vero E6 [12]; 10000 nM) | cell viability (U2OS [13]; 1 nM) | cell viability (U2OS [13]; 10 nM) | cell viability (U2OS [13]; 100 nM) | cell viability (U2OS [13]; 1000 nM) | cell viability (U2OS [13]; 10000 nM) | cell viability (Caco-2 [14]; 1 nM) | cell viability (Caco-2 [14]; 10 nM) | cell viability (Caco-2 [14]; 100 nM) | cell viability (Caco-2 [14]; 1000 nM) | cell viability (Caco-2 [14]; 10000 nM) | cell viability (HepG2 [15]; 1 nM) | cell viability (HepG2 [15]; 10 nM) | cell viability (HepG2 [15]; 100 nM) | cell viability (HepG2 [15]; 1000 nM) | cell viability (HepG2 [15]; 10000 nM)
NC(=O)c1ccccc1O [salicylamide] | > 10 µM | > 10 µM | > 10 µM | > 10 µM | > 10 µM | 0 | 0 | 0 | 5.7 | 0 | 105% | 105% | 92% | 100% | 104% | 98% | 93.9% | 102% | 97.9% | 93% | 97.9% | 108% | 95.6% | 102% | 98.9% | 93.6% | 99% | 78.2% | 84.8% | 79.2% | 98.5% | 99.6% | 98.5% | 91.2% | 99.7%
COCCNC(=O)Cn1cnc([N+](=O)[O-])n1 [sanazole] | > 10 µM | > 10 µM | > 10 µM | > 10 µM | > 10 µM | 0 | 0 | 0 | 0 | 0 | 96.7% | 106% | 97.6% | 102% | 103% | 99.5% | 99.1% | 95.7% | 101% | 96.6% | 98.3% | 104% | 96.7% | 97.7% | 95.8% | 93% | 99.6% | 95.9% | 93.9% | 93.4% | 103% | 93.3% | 102% | 95.7% | 97.6%
CC(=O)Nc1ccc(S(=O)(=O)Nc2ccc([N+](=O)[O-])cc2)cc1 [sulfanitran] | > 10 µM | > 10 µM | > 10 µM | > 10 µM | > 10 µM | 0 | 0 | 0 | 0 | 0 | 96.5% | 105% | 103% | 89% | 98.9% | 101% | 94.5% | 97% | 97.1% | 104% | 97.6% | 106% | 98.7% | 105% | 102% | 99% | 96.6% | 97.9% | 92.9% | 99.1% | 104% | 94.5% | 105% | 95% | 109%
O[C@H]1[C@H]2[C@H](O)CCCN2C[C@H]1O [swainsonine] | > 10 µM | > 10 µM | > 10 µM | > 10 µM | > 10 µM | 1.3 | 2 | 0 | 0 | 0.5 | 97.5% | 104% | 91.1% | 88.7% | 87.1% | 112% | 97% | 97.5% | 83.7% | 88.1% | 95.8% | 103% | 98.5% | 105% | 92.3% | 79% | 95.1% | 86.8% | 81.5% | 81.7% | 110% | 96.4% | 90.9% | 88.9% | 94.2%
COc1cc2c(cc1OC)CN(CCc1ccc(NC(=O)c3cc(OC)c(OC)cc3NC(=O)c3cnc4ccccc4c3)cc1)CC2 [tariquidar] | > 10 µM | > 10 µM | > 10 µM | > 10 µM | > 10 µM | 0 | 0 | 0 | 0 | 0 | 93.5% | 94.6% | 84% | 101% | 103% | 105% | 94.5% | 96.8% | 96.4% | 107% | 94.9% | 100% | 97.2% | 103% | 103% | 89.2% | 94.2% | 99.8% | 95.3% | 108% | 102% | 90.9% | 108% | 93.5% | 105%
CC(C)(C)c1ccc(C(O)CCCN2CCC(C(O)(c3ccccc3)c3ccccc3)CC2)cc1 (stereo not given) [terfenadine] | > 10 µM | > 10 µM | > 10 µM | > 10 µM | > 10 µM | 0 | 0 | 0 | 2.4 | 0 | 97.6% | 115% | 97.3% | 104% | 106% | 107% | 97.3% | 109% | 101% | 100% | 98.1% | 101% | 96.5% | 99.7% | 97.8% | 77.3% | 100% | 76.3% | 101% | 80.2% | 108% | 117% | 103% | 96.9% | 99.8%
O=C1CCC(N2C(=O)c3ccccc3C2=O)C(=O)N1 (stereo not given) [thalidomide] | > 10 µM | > 10 µM | > 10 µM | > 10 µM | > 10 µM | 0 | 0 | 0 | 0 | 0 | 89.8% | 92.1% | 92.2% | 93.6% | 97.9% | 103% | 102% | 93.9% | 97.3% | 96.1% | 101% | 95.4% | 100% | 95% | 98.6% | 89.6% | 91.9% | 90.9% | 94.7% | 94.9% | 102% | 99.8% | 89.4% | 99.1% | 97.8%
Clc1ccccc1CN1CCc2sccc2C1 [ticlopidine] | > 10 µM | > 10 µM | > 10 µM | > 10 µM | > 10 µM | 0 | 0 | 0 | 0 | 0 | 101% | 98.3% | 99.6% | 91.7% | 101% | 89% | 97.9% | 98% | 95.6% | 105% | 98.9% | 91.5% | 97.2% | 102% | 108% | 91.9% | 102% | 93.5% | 93.4% | 99.8% | 97.5% | 93% | 107% | 106% | 94.9%
NC1CCN(c2nc3c(cc2F)c(=O)c(C(=O)O)cn3-c2ccc(F)cc2F)C1 (stereo not given) [tosufloxacin] | > 10 µM | > 10 µM | > 10 µM | > 10 µM | > 10 µM | 0 | 0 | 0 | 0.5 | 0 | 95.1% | 103% | 101% | 103% | 124% | 101% | 101% | 108% | 101% | 99.7% | 97.3% | 104% | 98.6% | 102% | 95% | 96% | 99.9% | 111% | 99.4% | 81.7% | 88.1% | 87.6% | 95.9% | 96.3% | 78.6%
N[C@@H](Cc1c[nH]c2ccccc12)C(=O)O [tryptophan] | > 10 µM | > 10 µM | > 10 µM | > 10 µM | > 10 µM | 0 | 0 | 0 | 0 | 0 | 106% | 97.1% | 107% | 107% | 103% | 99.7% | 108% | 94.4% | 91.3% | 99.8% | 97.2% | 101% | 101% | 99.1% | 98.1% | 105% | 96.6% | 85.7% | 110% | 97.5% | 88.3% | 95.1% | 103% | 88.9% | 100%
CC(C)(C)c1cc(C=C(C#N)C#N)cc(C(C)(C)C)c1O [tyrphostin-A9] | 2.12 µM | 2.91 µM | 2.18 µM | 1.29 µM | 1.45 µM | 4.2 | 5 | 5.9 | 8.1 | 8.9 | 97.4% | 96.3% | 99% | 92.8% | 44.1% | 100% | 106% | 97.8% | 97.2% | 17.5% | 106% | 97.9% | 100% | 90.6% | 22.4% | 96.5% | 98.3% | 95.8% | 70.1% | 20.5% | 104% | 101% | 98.7% | 74.3% | 8.9%
CCCCC(=O)OCC(=O)[C@]1(O)Cc2c(O)c3c(c(O)c2[C@@H](O[C@H]2C[C@H](NC(=O)C(F)(F)F)[C@H](O)[C@H](C)O2)C1)C(=O)c1c(OC)cccc1C3=O [valrubicin] | 0.769 µM | 2.28 µM | 1.36 µM | 1.36 µM | 0.43 µM | 9 | 5.2 | 9.5 | 7.5 | 15.2 | 90.7% | 95.4% | 89.7% | 60.9% | 26.7% | 98.6% | 102% | 107% | 92.3% | 29.2% | 105% | 96.7% | 103% | 70.3% | 6.1% | 95.9% | 96.8% | 92.5% | 72.3% | 23.3% | 95.7% | 101% | 77.9% | 33.6% | 0.6%
CCCCC(=O)N(Cc1ccc(-c2ccccc2-c2nnn[nH]2)cc1)[C@H](C(=O)O)C(C)C [valsartan] | > 10 µM | > 10 µM | > 10 µM | > 10 µM | > 10 µM | 0 | 0 | 0 | 0 | 0 | 103% | 108% | 95.6% | 102% | 90.9% | 101% | 99.8% | 98.1% | 100% | 99.9% | 101% | 98.8% | 96.9% | 97.2% | 101% | 92% | 94.3% | 88.6% | 102% | 96% | 107% | 101% | 93.4% | 97.3% | 103%
COc1ccc(N(C)c2nc(C)nc3ccccc23)cc1 [verubulin] | 0.0151 µM | 0.0037 µM | 0.0133 µM | 0.0156 µM | 0.0069 µM | 20.2 | 33.5 | 29.6 | 22.4 | 26.2 | 94.9% | 77.2% | 46.6% | 42.3% | 40.3% | 93% | 32.6% | 21.4% | 23.9% | 27.9% | 102% | 72.6% | 17.3% | 18% | 18.3% | 103% | 76.2% | 40.5% | 38.3% | 34.6% | 108% | 52.4% | 34.3% | 36.3% | 41.4%
